Measurements reported in patent EP1203770A1 (priority 1992, dated 1994).
Where two headings read alike, the source gives them in different places.

Target: T1, HIV-1 protease (Human immunodeficiency virus type 1 group M subtype B, UniProt P04585)
T1 construct: The protease (or proteinase), consisting of only 99 amino acids, is among the smallest enzymes known
Test: In vitro HIV protease inhibitory assay (HIV Protease FITC Assay)
Format: biochemical
Details: for inhibition at 0.123 µM / inhibition at 0.37 µM / inhibition at 1.1 µM / inhibition at 3.3 µM / inhibition at 10 µM / inhibition at 30 µM: read-out: HIV-1 Protease % Inhib
Procedure, shortened: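 Biotin/FITC-labelled peptide substrate cleaved by HIV-1 protease for 1 h at room temperature in the dark, in 0.1 M sodium acetate pH 5.5, 1.0 M NaCl, 0.05% NP-40. Uncleaved substrate captured on avidin beads and separated by filtration; fluorescence gave % inhibition.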

Compound	inhibition at 0.123 µM (HIV-1 Dose 0.123 uM) [%]	inhibition at 0.37 µM (HIV-1 Dose 0.370 uM) [%]	inhibition at 1.1 µM (HIV-1 Dose 1.100 uM) [%]	inhibition at 3.3 µM (HIV-1 Dose 3.300 uM) [%]	inhibition at 10 µM (HIV-1 Dose 10.000 uM) [%]	inhibition at 30 µM (HIV-1 Dose 30.000 uM) [%]	Ki (read-out: HIV-1 FITC Ki) [nM]	Ki [nM]	inhibition at 0.123 µM [%]	inhibition at 0.37 µM [%]	inhibition at 1.1 µM [%]	inhibition at 3.3 µM [%]	inhibition at 10 µM [%]	inhibition at 30 µM [%]
CCC(Cc1ccccc1)c1cc(O)c(C(c2cccc(NC(=O)Nc3ccc(OC)cc3)c2)C2CC2)c(=O)o1 (stereo not drawn) [Example 214, 3-(α-Cyclopropyl-meta-[(4-methoxyphenylaminocarbonyl)amino]benzyl)-6-(α-ethylphenethyl)-4-hydroxy-2H-pyran-2-one]	< 10	< 10	32	66	79.5	86								
CCC(Cc1ccccc1)c1cc(O)c(C(c2cccc(NC(=O)Nc3ccc(Br)cc3)c2)C2CC2)c(=O)o1 (stereo not drawn) [Example 215, 3-(α-Cyclopropyl-meta-[(4-bromophenylaminocarbonyl)amino]benzyl)-6-(α-ethylphenethyl)-4-hydroxy-2H-pyran-2-one]	< 10	< 10	< 10	16.1	23.1	28.8								
CCC(Cc1ccccc1)c1cc(O)c(C(c2cccc(NC(=O)NS(=O)(=O)c3ccccc3)c2)C2CC2)c(=O)o1 (stereo not drawn) [Example 216, 3-(α-Cyclopropyl-meta-[(phenylsulfonylaminocarbonyl)amino]benzyl)-6-(α-ethylphenethyl)-4-hydroxy-2H-pyran-2-one]	< 10	29.8	61.1	85.6	91.5	90.5	122							
CCCCC1(Cc2ccccc2)CC(O)=C(C(C=Cc2ccccc2)c2ccccc2)C(=O)O1 (stereo not shown) [Example 217, 2H-Pyran-2-one, 6-butyl-5,6-dihydro-3-(1,3-diphenyl-2-propenyl)-4-hydroxy-6-phenylmethyl-]	< 10	< 10	< 10	33.1	62.4	69.1								
CCCCC1(Cc2ccccc2)CC(O)=C(C(CCc2ccccc2)c2ccccc2)C(=O)O1 (stereo not shown) [Example 218, 2H-Pyran-2-one, 6-butyl-5,6-dihydro-3-(1,3-diphenylpropyl)-4-hydroxy-6-phenylmethyl-]	< 10	< 10	21.2	46	59.3	58.2								
C=CC(C1=C(O)CC(CCCC)(Cc2ccccc2)OC1=O)c1ccccc1 (stereo not shown) [Example 219, 2H-Pyran-2-one, 6-butyl-5,6-dihydro-4-hydroxy-6-phenylmethyl-3-(1-phenyl-2-propenyl)-]	< 10	< 10	35.3	65.6	79.7	90.2								
CCCCC1(Cc2ccccc2)CC(O)=C(C(CC)c2ccccc2)C(=O)O1 (stereo not shown) [Example 220, 2H-Pyran-2-one, 6-butyl-5,6-dihydro-4-hydroxy-6-phenylmethyl-3-(1-phenylpropyl)-]	< 10	< 10	21.3	51.6	68.4	62.2								
CCC(Cc1ccccc1)c1cc(O)c(C(c2cccc(NC(=O)[C@H](C)NC(=O)OC(C)(C)C)c2)C2CC2)c(=O)o1 (stereo partly drawn) [Example 221, 3-(α-Cyclopropyl-meta-(tert-butyloxycarbonyl-L-alanylamino)benzyl)-6-(α-ethylphenethyl)-4-hydroxy-2H-pyran-2-one]	43.1	72.1	87.3	102	108	101	14.6							
CCC(Cc1ccccc1)c1cc(O)c(C(c2cccc(NC(=O)[C@H](Cc3cn(S(=O)(=O)c4ccc(C)cc4)cn3)NC(=O)OC(C)(C)C)c2)C2CC2)c(=O)o1 (stereo partly drawn) [Example 222, 3-(α-Cyclopropyl-meta-(N-α-tert-butyloxycarbonyl-N-im-p-toluenesulfonyl-L-histidylamino)benzyl)-6-(α-ethylphenethyl)-4-hydroxy-2H-pyran-2-one]	19	51.7	75.8	91	98.3	95.8	18.5							
CCC(Cc1ccccc1)c1cc(O)c(C(c2cccc(NS(=O)(=O)c3ccc(Cl)cc3)c2)C2CC2)c(=O)o1 (stereo not drawn) [Example 224, 3-(α-Cyclopropyl-meta-(4-chlorophenylsulfonylamino)benzyl)-6-(α-ethylphenethyl)-4-hydroxy-2H-pyran-2-one]								14.7	46.9	76.9	99.6	97.1	110	105
CCC(Cc1ccccc1)c1cc(O)c(C(c2cccc(NC(=O)CC[C@H](NC(=O)OCc3ccccc3)C(=O)OCc3ccccc3)c2)C2CC2)c(=O)o1 (stereo partly drawn) [Example 225, 3-(α-Cyclopropyl-meta-(N-benzyloxycarbonyl-O-α-benzyl-L-glutamylamino)benzyl)-6-(α-ethylphenethyl)-4-hydroxy-2H-pyran-2-one]	< 10	< 10	< 10	21	30.6	35.5								
CCC(Cc1ccccc1)c1cc(O)c(C(c2cccc(NC(=O)[C@H](Cc3c[nH]cn3)NC(=O)OC(C)(C)C)c2)C2CC2)c(=O)o1 (stereo partly drawn) [Example 226, 3-(α-Cyclopropyl-meta-(N-α-tert-butyloxycarbonyl-L-histidylamino)benzyl)-6-(α-ethylphenethyl)-4-hydroxy-2H-pyran-2-one]							4		73.4	93.9	106	104	101	98.3
CCC(Cc1ccccc1)c1cc(O)c(C(c2cccc(NC(=O)c3ccc(C#N)cc3)c2)C2CC2)c(=O)o1 (stereo not shown) [Example 227]	< 10	19.6	49.2	80.2	89.8	85.4								
CCC(Cc1ccccc1)c1cc(O)c(C(c2cccc(NS(=O)(=O)c3cccc4cccnc34)c2)C2CC2)c(=O)o1 (stereo not drawn) [Example 229, 3-(α-Cyclopropyl-meta-(8-quinolinesulfonylamino)benzyl)-6-(α-ethylphenethyl)-4-hydroxy-2H-pyran-2-one]	52.2	95.9	106	106	113	102	3.5							
CCC(Cc1ccccc1)c1cc(O)c(C(c2cccc(NC(=O)CCn3ccc4ccccc43)c2)C2CC2)c(=O)o1 (stereo not drawn) [Example 230, 3-(α-Cyclopropyl-meta-(3-(1-indolyl)propanoylamino)benzyl)-6-(α-ethylphenethyl)-4-hydroxy-2H-pyran-2-one]	< 10	15.3	48.6	71.3	91.1	85.3								
CCC(Cc1ccccc1)c1cc(O)c(C(c2cccc(NC(=O)Cc3ccccn3)c2)C2CC2)c(=O)o1 (stereo not drawn) [Example 231, 3-(α-Cyclopropyl-meta-(2-pyridylacetylamino)benzyl)-6-(α-ethylphenethyl)-4-hydroxy-2H-pyran-2-one]	16.5	57.4	77.7	98.9	113	109	52.4							
